Each structure is given as a SMILES string.

T1 sequence (P43220 24-463): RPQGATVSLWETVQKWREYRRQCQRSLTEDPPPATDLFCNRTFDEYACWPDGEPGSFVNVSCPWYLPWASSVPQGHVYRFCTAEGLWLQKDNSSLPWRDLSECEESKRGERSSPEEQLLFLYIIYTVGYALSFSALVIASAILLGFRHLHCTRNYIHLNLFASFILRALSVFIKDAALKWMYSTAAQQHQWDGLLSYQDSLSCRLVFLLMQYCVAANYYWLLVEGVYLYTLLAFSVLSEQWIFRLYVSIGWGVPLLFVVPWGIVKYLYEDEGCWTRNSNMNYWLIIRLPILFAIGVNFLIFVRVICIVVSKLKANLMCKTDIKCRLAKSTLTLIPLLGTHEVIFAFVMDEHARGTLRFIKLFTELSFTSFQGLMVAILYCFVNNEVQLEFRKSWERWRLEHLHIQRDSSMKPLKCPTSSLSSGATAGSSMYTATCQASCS

The experiment concerns the target T1, GLP-1R (Homo sapiens, UniProt P43220).
T1 construct: host or cells: CHO cells
As to the kind of experiment: GLP-1R activation cAMP assay (Assay 1 or Assay 2). Format: cell-based. Conditions: cAMP increase in CHO cells stably expressing GLP-1R; compounds run on one of the two cAMP assays. In outline: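 EC50 values come from a sigmoidal fit of HTRF-detected cAMP rise versus log agonist concentration. GLP-1R-expressing CHO cells, equilibrated 1 h at 37 °C in HBSS with HEPES and BSA, received a 10-point compound dose series for 30 min before detection.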
The term EC50 denotes the concentration needed to bring the measured effect to its halfway point. `O=C(O)c1ccc2nc(Cc3cc(F)c(-c4cccc(OCc5ncc(OCC(F)F)s5)n4)cc3F)n(C[C@@H]3CCO3)c2c1` [Example 56, (S)-2-(4-(6-((5-(2,2-difluoroethoxy)thiazol-2-yl)methoxy)pyridin-2-yl)-2,5-difluorobenzyl)-1-(oxetan-2-ylmethyl)-1H-benzo[d]imidazole-6-carboxylic acid]: the EC50 was 7.19 nM. With `COc1cc(C#Cc2cnn(C)c2)ccc1COc1cccc(-c2cc(F)c(Cc3nc4ccc(C(=O)O)cc4n3C[C@@H]3CCO3)cc2F)n1` [Example 304, (S)-2-(2,5-difluoro-4-(6-((2-methoxy-4-((1-methyl-1H-pyrazol-4-yl)ethynyl)benzyl)oxy)pyridin-2-yl)benzyl)-1-(oxetan-2-ylmethyl)-1H-benzo[d]imidazole-6-carboxylic acid] the figure was 0.524 nM; with `N#CCCNC(=O)c1ccc(COc2cccc(-c3cc(F)c(Cc4nc5ccc(C(=O)O)cc5n4C[C@@H]4CCO4)cc3F)n2)cn1` [Example 375, (S)-2-(4-(6-((6-((2-cyanoethyl)carbamoyl)pyridin-3-yl)methoxy)pyridin-2-yl)-2,5-difluorobenzyl)-1-(oxetan-2-ylmethyl)-1H-benzo[d]imidazole-6-carboxylic acid], 0.372 nM. `O=C(O)c1ccc2nc(Cc3cc(F)c(-c4cccc(OCc5ncc(Cl)s5)n4)cc3F)n(C[C@@H]3CCO3)c2c1` [Example 47, (S)-2-(4-(6-((5-chlorothiazol-2-yl)methoxy)pyridin-2-yl)-2,5-difluorobenzyl)-1-(oxetan-2-ylmethyl)-1H-benzo[d]imidazole-6-carboxylic acid] had an EC50 of 0.09 nM. As to `O=C(O)c1ccc2nc(Cc3cc(F)c(-c4cccc(OCc5ncc(C(F)F)s5)n4)cc3F)n(C[C@@H]3CCO3)c2c1` [Example 58, (S)-2-(4-(6-((5-(difluoromethyl)thiazol-2-yl)methoxy)pyridin-2-yl)-2,5-difluorobenzyl)-1-(oxetan-2-ylmethyl)-1H-benzo[d]imidazole-6-carboxylic acid], the EC50 stood at 0.14 nM. For the compound `COc1nnc(COc2cccc(-c3cc(F)c(Cc4nc5ccc(C(=O)O)cc5n4CC4(C(F)F)CC4)cc3F)n2)s1` [Example 276, 2-(2,5-difluoro-4-(6-((5-methoxy-1,3,4-thiadiazol-2-yl)methoxy)pyridin-2-yl)benzyl)-1-((1-(difluoromethyl)cyclopropyl)methyl)-1H-benzo[d]imidazole-6-carboxylic acid], it took 1.31 nM to reach a half-maximal effect (EC50). Against the preceding compound, the EC50 is about 9.4-fold higher. The same measure for `CC(F)(F)c1cnc(COc2nc(-c3cc(F)c(Cc4nc5c(F)cc(C(=O)O)cc5n4C[C@@H]4CCO4)cc3F)ccc2F)s1` [Example 309, (S)-2-(4-(6-((5-(1,1-difluoroethyl)thiazol-2-yl)methoxy)-5-fluoropyridin-2-yl)-2,5-difluorobenzyl)-4-fluoro-1-(oxetan-2-ylmethyl)-1H-benzo[d]imidazole-6-carboxylic acid]: 0.084 nM; for `Cc1cc(COc2cccc(-c3cc(F)c(Cc4nc5ccc(C(=O)O)cc5n4C[C@@H]4CCO4)cc3F)n2)nn1C` [Example 72, (S)-2-(4-(6-((1,5-dimethyl-1H-pyrazol-3-yl)methoxy)pyridin-2-yl)-2,5-difluorobenzyl)-1-(oxetan-2-ylmethyl)-1H-benzo[d]imidazole-6-carboxylic acid]: 0.82 nM. The same measure for `O=C(O)c1ccc2nc(Cc3cc(F)c(-c4cccc(OCc5cnc(C(=O)NC6(C(F)F)CC6)cc5Cl)n4)cc3F)n(C[C@@H]3CCO3)c2c1` [Example 186, (S)-2-(4-(6-((4-chloro-6-((1-(difluoromethyl)cyclopropyl)carbamoyl)pyridin-3-yl)methoxy)pyridin-2-yl)-2,5-difluorobenzyl)-1-(oxetan-2-ylmethyl)-1H-benzo[d]imidazole-6-carboxylic acid]: 0.91 nM; for `Cn1nc(COc2cccc(-c3cc(F)c(Cc4nc5ccc(C(=O)O)cc5n4C[C@@H]4CCO4)cc3F)n2)cc1C(F)F` [Example 40, (S)-2-(4-(6-((5-(difluoromethyl)-1-methyl-1H-pyrazol-3-yl)methoxy)pyridin-2-yl)-2,5-difluorobenzyl)-1-(oxetan-2-ylmethyl)-1H-benzo[d]imidazole-6-carboxylic acid]: 0.83 nM; for `O=C(O)c1ccc2nc(Cc3cc(F)c(-c4cccc(OCc5ccc(-c6cn(C7COC7)nn6)cc5F)n4)cc3F)n(C[C@@H]3CCO3)c2c1` [Example 215, (S)-2-(2,5-difluoro-4-(6-((2-fluoro-4-(1-(oxetan-3-yl)-1H-1,2,3-triazol-4-yl)benzyl)oxy)pyridin-2-yl)benzyl)-1-(oxetan-2-ylmethyl)-1H-benzo[d]imidazole-6-carboxylic acid]: 0.18 nM.

`CCOc1nc(C)c(COc2cccc(-c3cc(F)c(Cc4nc5ccc(C(=O)O)cc5n4C[C@@H]4CCO4)cc3F)n2)s1` [Example 349, (S)-2-(4-(6-((2-ethoxy-4-methylthiazol-5-yl)methoxy)pyridin-2-yl)-2,5-difluorobenzyl)-1-(oxetan-2-ylmethyl)-1H-benzo[d]imidazole-6-carboxylic acid] registered an EC50 of 0.323 nM. This EC50 lies about 1.8-fold higher than the previous one.

The compound `Cc1ncc(C#Cc2ccc(COc3cccc(-c4cc(F)c(Cc5nc6ccc(C(=O)O)cc6n5C[C@@H]5CCO5)cc4F)n3)c(F)c2)cn1` [Example 146, (S)-2-(2,5-difluoro-4-(6-((2-fluoro-4-((2-methylpyrimidin-5-yl)ethynyl)benzyl)oxy)pyridin-2-yl)benzyl)-1-(oxetan-2-ylmethyl)-1H-benzo[d]imidazole-6-carboxylic acid] registered an EC50 of 0.09 nM. Against the preceding compound, the EC50 is about 3.6-fold lower. With `Cn1nc(COc2cccc(-c3cc(F)c(Cc4nc5ccc(C(=O)O)cc5n4C[C@@H]4CCO4)cc3F)n2)cc1Cl` [Example 38, (S)-2-(4-(6-((5-chloro-1-methyl-1H-pyrazol-3-yl)methoxy)pyridin-2-yl)-2,5-difluorobenzyl)-1-(oxetan-2-ylmethyl)-1H-benzo[d]imidazole-6-carboxylic acid], a half-maximal response (EC50) required 0.6 nM.

`O=C(O)c1ccc2nc(Cc3cc(F)c(-c4cccc(OCc5nnc(C6CC6)s5)n4)cc3F)n(C[C@@H]3CCO3)c2c1` [Example 307, (S)-2-(4-(6-((5-cyclopropyl-1,3,4-thiadiazol-2-yl)methoxy)pyridin-2-yl)-2,5-difluorobenzyl)-1-(oxetan-2-ylmethyl)-1H-benzo[d]imidazole-6-carboxylic acid] gave an EC50 of 0.59 nM. The same measure for `O=C(O)c1cc(F)c2nc(Cc3cc(F)c(-c4cccc(OCc5ncc(Cl)s5)n4)cc3F)n(C[C@@H]3CCO3)c2c1` [Example 319, (S)-2-(4-(6-((5-chlorothiazol-2-yl)methoxy)pyridin-2-yl)-2,5-difluorobenzyl)-4-fluoro-1-(oxetan-2-ylmethyl)-1H-benzo[d]imidazole-6-carboxylic acid]: 0.034 nM. With `Cn1cc(C#Cc2cnc(COc3cccc(-c4cc(F)c(Cc5nc6c(F)cc(C(=O)O)cc6n5C[C@@H]5CCO5)cc4F)n3)c(F)c2)cn1` [Example 392, (S)-2-(2,5-difluoro-4-(6-((3-fluoro-5-((1-methyl-1H-pyrazol-4-yl)ethynyl)pyridin-2-yl)methoxy)pyridin-2-yl)benzyl)-4-fluoro-1-(oxetan-2-ylmethyl)-1H-benzo[d]imidazole-6-carboxylic acid] the figure was 0.206 nM.
